Data as given in PMC8778818, “Synthesis, Structural Characterization and Anticancer Activity of New 5-Trifluoromethyl-2-thioxo-thiazolo[4,5-d]pyrimidine Derivatives” (Pharmaceuticals, 2022).

Columns and labels:
NCI-H23 = assay: NCI-60 screen, Non-Small Cell Lung Cancer NCI-H23; type: cell-based, human; details: for Growth of Cells (%): NCI-H23, 10^−5 M one dose
M14 [1] = details: for Growth of Cells (%): M14, 10^−5 M one dose
NCI-H322M = assay: NCI-60 screen, Non-Small Cell Lung Cancer NCI-H322M; type: cell-based, human; details: for Growth of Cells (%): 10^−5 M one dose
SN12C = assay: NCI-60 screen, Renal Cancer SN12C; type: cell-based; details: for Growth of Cells (%): 10^−5 M one dose
HaCaT = assay: MTT cell viability assay, HaCaT; type: cell-based, human; details: Homo sapiens; HaCaT normal cells, MTT, 72 h, mean ± SD
Experimental: (§1) Twelve compounds (2a-e, 3a-d and 4a-c) at a concentration range of 50–5000 μM were tested for their antiproliferative potential against four human cancer cell lines (A375—melanotic melanoma, C32—amelanotic melanoma, DU145—prostate cancer androgen-independent, MCF-7/WT—breast adenocarcinoma) and two normal cell lines: Chinese Hamster Ovary (CHO-K1) and immortalized human keratinocytes from histologically normal skin (HaCaT).
(§2) To determine the antiproliferative activity of newly synthesized compounds, the following cell lines were used: human melanotic melanoma cell line (A375), human amelanotic melanoma cell line (C32), human breast adenocarcinoma cell line (MCF-7/WT), human prostate cancer androgen-independent (DU145) and two normal cell lines: hamster ovarian (CHO-K1) and immortalized human keratinocytes from histologically normal skin (HaCaT). The cells were obtained from the cell line bank of the Department of Molecular and Cellular Biology, Wroclaw Medical University. A375, C32, MCF-7/WT, DU145 and HaCaT cells were grown in a monolayer cultured in Dulbecco’s Modified Eagle’s Medium (DMEM, Sigma-Aldrich, Poznań, Poland), supplemented with 10% of fetal bovine serum (FBS, Gibco, Paisley, UK) and 1% of antibiotics (penicillin/streptomycin, Sigma-Aldrich) and CHO-K1 were grown in HAM’s F-12 medium (Sigma-Aldrich), supplemented with 10% fetal bovine serum (FBS, Gibco) and 1% of antibiotics (penicillin/streptomycin, Sigma-Aldrich). Cell lines were cultured in the polystyrene flasks 25 or 75 cm^2 (Thermo Fisher Scientific, Waltham, MA, USA), which were stored in 37 °C and 5% CO2 in a humidified 95% atmosphere (SteriCult, Thermo Scientific, Alab). The cell medium was exchanged twice a week. The exponentially growing cells were used throughout the experiments. The cells were rinsed with phosphate-buffered saline (PBS, Sigma-Aldrich) and trypsinized by Trypsin-EDTA 0.25% solution (Sigma-Aldrich).
(§3) The influence of the compounds was performed in a monolayer culture on cancer and normal cells. Compounds were initially dissolved in DMSO; further dilutions of the compound were performed in Dulbecco’s Modified Eagle’s Medium supplemented with 10% FBS. Compounds were tested in a 50–5000 µM concentration range. In the in vitro experiments, the concentrations of DMSO in the final solution of the compounds were used 0.05%; 0.1%; 0.5%; 1%, respectively.
(§4) Cell viability was determined using the MTT colorimetric assay. All cell lines were seeded into 96-well plates to a density of 3 × 10^4 cells/well. After 24 h, the culture supernatants were removed and appropriate dilutions of compounds in the culture medium (200 µL/well) were added to the cells’ monolayer cultures and incubated for an additional 72 h. After 72 h of exposition to the compounds and the removal of the culture medium, cell viability was determined by reducing the yellow dye 3-(4,5-dimethyl-2-thiazol)-2,5-diphenyl-2H-tetrazolium bromide (MTT assay, Sigma Saint Louis, MO, USA; In Vitro Toxicology Assay) to a blue formazan product. The absorbance of the resulting solutions in three duplicate experiments was measured at the wavelength of 560 nm in a microplate reader (EnSpire, Perkin Elmer, Kraków, Poland). MTT assay is a colorimetric method that estimates the rate of metabolism in viable cells. Absorbance is directly proportional to the number of viable cells. All the experiments were performed three times and the mean absorbance values were calculated. The methodology for the evaluation of the growth of human cancer and normal cells was described previously. The cell viability in each group was expressed as a percentage of control (untreated) cells.

IGROV1 = assay: NCI-60 screen, Ovarian Cancer IGROV1; type: cell-based; details: for Growth of Cells (%): IGROV1, 10^−5 M one dose
M14 [2] = assay: cells; details: Homo sapiens
[3] = MTT cell viability assay, HaCaT; type: cell-based, human; details: HaCaT keratinocytes (normal cell line), HaCaT human keratinocytes, 50 µM
Experimental: as §1, §2, §3, §4

[4] = Homo sapiens, five doses 10^−4–10^−8 M, read-out: log LC50 (the source's name) (converted)

Structure (SMILES) | Growth of Cells (%) (NCI-H23) | Growth of Cells (%) (M14 [1]) | Growth of Cells (%) (NCI-H322M) | Growth of Cells (%) (SN12C) | IC50 (HaCaT) | Growth of Cells (%) (IGROV1) | further results
O=c1[nH]c(C(F)(F)F)nc2c1sc(=S)n2-c1ccccc1 [Compound 2b, 3-phenyl-2-thioxo-5-(trifluoromethyl)-2,3-dihydro[1, 3]thiazolo[4,5-d]pyrimidin-7(6H)-one] | 112.30% | 112.91% | 128.80% | 106.95% | 712 ± 29.3 µM | −5.14% | –
FC(F)(F)c1nc(Cl)c2sc(=S)n(-c3ccccc3)c2n1 [Compound 3b, 7-chloro-3-phenyl-5-(trifluoromethyl)[1, 3]thiazolo[4,5-d]pyrimidine-2(3H)-thione] | 99.73% | 26.96% | 101.54% | 85.61% | 33.5 ± 0.7 µM | 63.57% | GI50 (NCI-H23; Homo sapiens, NCI-H23, five doses 10^−4–10^−8 M): 3.09 µM; CC50 (NCI-H23; Homo sapiens, NCI-H23, five doses 10^−4–10^−8 M, read-out: log LC50 (the source's name) (converted)): 93.3 µM; log TGI (NCI-H23; NCI-H23, five doses 10^−4–10^−8 M): −4.95 log M; log TGI (M14 [1]; M14, five doses 10^−4–10^−8 M): −5.39 log M; GI50 (NCI-H322M; Homo sapiens, five doses 10^−4–10^−8 M): 3.8 µM; CC50 (NCI-H322M; [4]): 38 µM; log TGI (NCI-H322M; five doses 10^−4–10^−8 M): −4.90 log M; GI50 (M14 [2]; M14, read-out: log GI50 (converted)): 2 µM; CC50 (M14 [2]; M14, read-out: log LC50 (converted)): 8.32 µM; CC50 (SN12C; [4]): 40.7 µM; GI50 (SN12C; Homo sapiens, read-out: log GI50 (converted)): 3.55 µM; log TGI (SN12C; five doses 10^−4–10^−8 M): −4.88 log M; viability at 72 h, 50 µM [3]: 20%; GI50 (IGROV1; Homo sapiens, IGROV-1, IGROV1, five doses 10^−4–10^−8 M): 1.95 µM; CC50 (IGROV1; Homo sapiens, IGROV-1, IGROV1, five doses 10^−4–10^−8 M, read-out: log LC50 (the source's name) (converted)): 7.59 µM; log TGI (IGROV1; IGROV1, five doses 10^−4–10^−8 M): −5.41 log M
CCNc1nc(C(F)(F)F)nc2c1sc(=S)n2-c1ccccc1 [Compound 4b, 7-(ethylamino)-3-phenyl-5-(trifluoromethyl)[1, 3]thiazolo[4,5-d]pyrimidine-2(3H)-thione] | 93.44% | 107.61% | – | 100.30% | 730 ± 31.1 µM | 101.57% | –
Fc1ccc(CNc2nc(C(F)(F)F)nc3c2sc(=S)n3-c2ccccc2)cc1 [Compound 4c] | – | 112.06% | – | 101.41% | 565 ± 24.7 µM | 109.98% | –
